Reference: ChEMBL document CHEMBL5230087, “Inhibitors of SARS-CoV-2 Entry: Current and Future Opportunities” (J Med Chem, 2020)

Key:
[1] = Cytotoxicity against african green monkey Vero cells incubated for 3 days; format: toxicity, cell-based; details: chlorocebus sabaeus, time 3 day
[2] = Antiviral activity against pseudovirus SARS-CoV spike protein infected in HeLa cells over expressing ACE2 assessed as inhibition on pseudovirus infection incubated for 52 hrs by luminescence based microplate reader analysis; format: functional, cell-based
Ebolavirus = test: microbe, parasite or virus in culture; format: functional, organism-based; details: Orthoebolavirus
[3] = biological target: T1, Angiotensin-converting enzyme 2 (Homo sapiens, UniProt Q9BYF1); test: Binding affinity to ACE2 (unknown origin) at 10 uM assessed as inhibition constant
T1 sequence (Q9BYF1 whole entry): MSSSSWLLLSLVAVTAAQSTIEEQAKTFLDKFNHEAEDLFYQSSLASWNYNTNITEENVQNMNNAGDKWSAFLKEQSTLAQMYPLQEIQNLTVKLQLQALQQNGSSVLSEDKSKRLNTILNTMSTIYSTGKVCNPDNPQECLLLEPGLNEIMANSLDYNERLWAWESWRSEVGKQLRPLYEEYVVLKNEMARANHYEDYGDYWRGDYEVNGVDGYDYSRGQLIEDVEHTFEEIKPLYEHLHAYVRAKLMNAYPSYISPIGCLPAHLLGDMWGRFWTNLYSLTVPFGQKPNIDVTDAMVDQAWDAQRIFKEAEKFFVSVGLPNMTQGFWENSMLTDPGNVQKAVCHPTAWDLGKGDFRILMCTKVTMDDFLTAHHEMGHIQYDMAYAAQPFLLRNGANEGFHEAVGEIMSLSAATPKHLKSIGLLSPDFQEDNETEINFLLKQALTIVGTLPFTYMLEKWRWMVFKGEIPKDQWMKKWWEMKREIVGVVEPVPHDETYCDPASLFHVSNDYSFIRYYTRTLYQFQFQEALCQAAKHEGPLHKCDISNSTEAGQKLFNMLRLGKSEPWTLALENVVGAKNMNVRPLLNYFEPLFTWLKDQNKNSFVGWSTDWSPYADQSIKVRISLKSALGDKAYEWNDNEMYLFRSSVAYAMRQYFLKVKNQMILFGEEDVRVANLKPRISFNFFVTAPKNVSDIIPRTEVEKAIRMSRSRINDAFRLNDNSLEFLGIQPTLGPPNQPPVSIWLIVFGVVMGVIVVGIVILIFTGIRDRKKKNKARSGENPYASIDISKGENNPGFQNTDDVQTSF

Procathepsin L = Procathepsin L (Homo sapiens, UniProt P07711); test: Inhibition of human recombinant Cathepsin L […] using Z-FR-AMC as substrate incubated for 30 mins by fluorometric assay
Procathepsin L, sequence (P07711 whole entry): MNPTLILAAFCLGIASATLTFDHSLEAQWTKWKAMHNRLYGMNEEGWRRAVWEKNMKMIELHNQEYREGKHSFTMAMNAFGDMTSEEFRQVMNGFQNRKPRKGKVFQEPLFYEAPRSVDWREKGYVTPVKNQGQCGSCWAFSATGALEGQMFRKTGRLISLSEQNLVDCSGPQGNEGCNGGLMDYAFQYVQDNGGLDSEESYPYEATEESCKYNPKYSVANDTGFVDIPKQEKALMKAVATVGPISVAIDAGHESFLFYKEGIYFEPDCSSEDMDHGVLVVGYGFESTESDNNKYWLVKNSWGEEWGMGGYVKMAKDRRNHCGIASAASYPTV

Human coronavirus 229E = test: Antiviral activity against HCoV-229E; format: functional, organism-based
[4] = biological target: T1, Angiotensin-converting enzyme 2; test: Inhibition of human recombinant ACE2 at 50 uM using (7Mca-Y-V-A- D -A-P- K(Knp) as a flurogenic substrate measured after 10 mins by fluorescence based analysis
[5] = biological target: T1, Angiotensin-converting enzyme 2; test: Inhibition of SARS-CoV S binding to human recombinant ACE2 expressed in Escherichia coli BL21(DE3) incubated for 2 hrs by ELISA method
[6] = biological target: T1, Angiotensin-converting enzyme 2; test: Inhibition of human ACE2 (unknown origin) at 0.5 uM
[7] = Selectivity index, ratio of CC50 for African green monkey Vero cells to EC50 for SARS-CoV-2 nCoV-2019; format: toxicity; details: read-out: Selectivity Index
[8] = biological target: T1, Angiotensin-converting enzyme 2; test: Inhibition of human recombinant ACE2

## COc1ccc(S(=O)(=O)O)cc1/N=N/c1c(S(=O)(=O)O)cc2cc(Nc3nc(Nc4ccccc4)nc(Nc4cc(C)c(/N=N/c5cc(S(=O)(=O)O)cc6cc(S(=O)(=O)O)cc(O)c56)cc4OC)n3)ccc2c1O
[1]
  CC50 at 72 h: 26.9 µM

## CC(C)(C)OC(=O)N[C@@H](Cc1c[nH]c2ccccc12)C(=O)NNC(=O)OCC(=O)N1CCCc2ccccc21
[2]
  EC50: 273 nM
Ebolavirus
  EC50: 193 nM

## NCCNCCN1CC1
[3]
  Ki: 459 µM

## C/C(=N/NC(N)=S)c1cccs1
[2]
  EC50: 6400 nM
Procathepsin L
  IC50: 5.33 µM
[1]
  CC50 at 72 h: 100 µM

## O=C(NC(Cc1ccccc1)C(=O)N1CCC(O)(c2ccc(Br)cc2)CC1)c1ccccc1 (stereo unspecified)
Human coronavirus 229E
  EC50: 110 µM

## CC(C)CC(CC(=O)NO)C(=O)NC(C(=O)NC(C)C(=O)NCCN)C(C)(C)C (stereo unspecified)
[4]
  IC50: 200 nM

## C=C(N[C@@H](CCCN=C(N)N)C(=O)Cl)[C@@H](CCCCN)NC(=O)[C@H](NC(=O)[C@H](CCCN=C(N)N)NC(=O)CCCCCCCCCC)C(C)C
Procathepsin L
  IC50: 75 µM

## CC[C@H](C)[C@H](NC(=O)[C@H](CO)NC(=O)[C@H](CCCCN)NC(=O)[C@H](CCC(N)=O)NC(=O)[C@H](CO)NC(=O)[C@@H](NC(=O)[C@@H](N)CO)[C@@H](C)O)C(=O)N[C@H](C(=O)N[C@@H](C)C(=O)N[C@@H](Cc1ccc(O)cc1)C(=O)N[C@H](C(=O)N[C@@H](CCSC)C(=O)O)[C@@H](C)O)C(C)C
[5]
  IC50: 1.88 nM

## CC(C)C[C@H](NC(=O)[C@@H]1CCCN1C(=O)[C@H](CO)NC(=O)[C@H](CS)NC(=O)[C@H](Cc1cnc[nH]1)NC(=O)[C@H](CO)NC(=O)[C@H](Cc1ccc(O)cc1)NC(=O)[C@H](CC(=O)O)NC(=O)CN)C(=O)N[C@@H](CCCNC(=N)N)C(=O)N[C@@H](Cc1ccc(O)cc1)C(=O)N[C@@H](Cc1ccc(O)cc1)C(=O)N1CCC[C@H]1C(=O)N[C@@H](Cc1c[nH]c2ccccc12)C(=O)N[C@@H](Cc1c[nH]c2ccccc12)C(=O)N[C@@H](CCCCN)C(=O)N[C@@H](CS)C(=O)N[C@H](C(=O)N[C@@H](Cc1ccc(O)cc1)C(=O)N1CCC[C@H]1C(=O)N[C@@H](CC(=O)O)C(=O)N1CCC[C@H]1C(=O)N[C@@H](CCC(=O)O)C(=O)NCC(=O)NCC(=O)NCC(=O)O)[C@@H](C)O
[3]
  Ki: 0.0028 µM
[6]
  IC50: 10 nM

## CC[C@H](C)[C@@H](NC(=O)[C@H]1CCCN1C(=O)[C@H](CCC(N)=O)NC(=O)[C@H](Cc1ccc(O)cc1)NC(=O)CNC(=O)[C@H](CCCCN)NC(=O)[C@H](Cc1ccc(O)cc1)NC(=O)[C@@H](NC(=O)[C@H](Cc1ccc(O)cc1)NC(=O)[C@H](CC(C)C)NC(=O)[C@H](Cc1ccccc1)NC(=O)CN)C(C)C)C(=O)O
[5]
  IC50: 4.3 nM

## CC(C)CC(CC(=O)NO)C(=O)NC(Cc1ccc2ccccc2c1)C(=O)NC(C)C(N)=O (stereo unspecified)
[4]
  IC50: 100 nM

## O=C(OC[C@H]1O[C@@H](OC(=O)c2cc(O)c(O)c(O)c2)[C@H](OC(=O)c2cc(O)c(O)c(O)c2)[C@H](OC(=O)c2cc(O)c(O)c(O)c2)[C@@H]1O)c1cc(O)c(O)c(O)c1
[7]
  selectivity ratio: 240
[1]
  CC50 at 72 h: 1080 µM

## OC(COc1cccc(OCC(O)CN2CCCCC2)c1)CN1CCCCC1 (stereo unspecified)
[2]
  EC50: 3000 nM

## CC(C)CC(NC(Cc1cncn1Cc1cc(Cl)cc(Cl)c1)C(=O)O)C(=O)O (stereo unspecified)
[4]
  IC50: 0.44 nM

## O=C(Nc1ccc2c(c1)C(=O)c1ccccc1C2=O)c1ccccc1
[8]
  IC50: 9.7 µM
[1]
  CC50 at 72 h: 20 µM
